# Measurements taken from PubChem BioAssay AID2060364.
# Test system: JHH-NF1-GBM1 glioma viability, PrestoBlue fluorescence, 120 h
# Test: viability reduction in NF1-associated ATRX-deficient glioma cells, dose response, cell-based, JHH-NF1-GBM1, PrestoBlue (AID 2060364)
structure (smiles),measurement,value
O=[N+]([O-])c1c(NCCO)cc(Sc2nc3ccccc3s2)c2nonc12,IC50,4.84 µM
